Converted amounts (≈) assume the structure as drawn.
Test system: Vero
Test: Cytotoxicity against african green monkey Vero cells after 72 hrs by tetrazolium dye assay
Format: cell-based
Details: Chlorocebus sabaeus

Row | Compound | IC50
1 | O=[N+]([O-])c1cn2c(n1)OC[C@@H](OCc1cn(-c3ccc(F)cc3)nn1)C2 | > 128 µM
2 | O=[N+]([O-])c1cn2c(n1)OC[C@@H](OCc1ccn(-c3ccc(C(F)(F)F)cc3)n1)C2 | > 128 µM
3 | O=[N+]([O-])c1cn2c(n1)OC[C@@H](OCc1ccc(-c3ccc(F)cc3)s1)C2 | > 128 µM
4 | O=[N+]([O-])c1cn2c(n1)OC[C@@H](OCc1csc(-c3ccc(F)cc3)n1)C2 | > 128 µM
5 | Cn1c(CO[C@@H]2COc3nc([N+](=O)[O-])cn3C2)cnc1-c1ccc(C#N)cc1 | > 128 µM
6 | COc1ccc(-n2cc(CO[C@@H]3COc4nc([N+](=O)[O-])cn4C3)nn2)cn1 | > 128 µM
7 | Cn1c(CO[C@@H]2COc3nc([N+](=O)[O-])cn3C2)cnc1-c1ccc(C(F)(F)F)cc1 | > 128 µM
8 | COc1ccc(-c2cccc(CO[C@@H]3COc4nc([N+](=O)[O-])cn4C3)c2)cc1F | > 128 µM
9 | N#Cc1ccc(-n2cc(CO[C@@H]3COc4nc([N+](=O)[O-])cn4C3)nn2)cc1 | > 128 µM
10 | O=[N+]([O-])c1cn2c(n1)OC[C@@H](OCc1ccc(-c3cncc(F)c3)s1)C2 | > 128 µM
11 | O=[N+]([O-])c1cn2c(n1)OC[C@@H](OCc1cccc(-c3ccc(F)cc3)c1)C2 | > 128 µM
12 | O=[N+]([O-])c1cn2c(n1)OC[C@@H](OCc1nnn(-c3ccccc3)n1)C2 | > 128 µM
13 | O=[N+]([O-])c1cn2c(n1)OC[C@@H](OCc1cccc(-c3ccc(OC(F)(F)F)cc3)c1)C2 | > 128 µM
14 | N#Cc1ccc(-c2cc(CO[C@@H]3COc4nc([N+](=O)[O-])cn4C3)on2)cc1 | > 128 µM
15 | O=[N+]([O-])c1cn2c(n1)OC[C@@H](OCc1ccc(-c3cc(C(F)(F)F)ccn3)s1)C2 | > 128 µM
16 | COc1ccc(-c2ncc(CO[C@@H]3COc4nc([N+](=O)[O-])cn4C3)n2C)cc1F | > 128 µM
17 | O=[N+]([O-])c1cn2c(n1)OC[C@@H](OCc1ccc(-c3ccc(OC(F)(F)F)cc3)s1)C2 | > 128 µM
18 | O=[N+]([O-])c1cn2c(n1)OC[C@@H](OCc1ccc(-c3ccc(F)nc3)s1)C2 | > 128 µM
19 | N#Cc1ccc(-c2nc(CO[C@@H]3COc4nc([N+](=O)[O-])cn4C3)cs2)cc1 | > 128 µM
20 | O=[N+]([O-])c1cn2c(n1)OC[C@@H](OCc1cccc(-c3ccc(C(F)(F)F)cc3)c1)C2 | > 128 µM
21 | O=[N+]([O-])c1cn2c(n1)OC[C@@H](OCc1cnn(-c3ccccc3)n1)C2 | > 128 µM
22 | O=[N+]([O-])c1cn2c(n1)OC[C@@H](OCc1cnn(-c3ccc(F)cc3)n1)C2 | > 128 µM
23 | Cn1c(CO[C@@H]2COc3nc([N+](=O)[O-])cn3C2)cnc1-c1ccc(OC(F)(F)F)cc1 | > 128 µM

Test system: Mycobacterium tuberculosis
Test: Antimycobacterial activity against Mycobacterium tuberculosis H37Rv after 16 to 24 hrs by microplate alamar blue assay
Format: functional
Details: not given

Row | Compound | MIC
24 | O=[N+]([O-])c1cn2c(n1)OC[C@@H](OCc1cn(-c3ccc(F)cc3)nn1)C2 | 1.2 µM (≈ 0.432 µg/mL)
25 | O=[N+]([O-])c1cn2c(n1)OC[C@@H](OCc1ccn(-c3ccc(C(F)(F)F)cc3)n1)C2 | 0.045 µM (≈ 0.0184 µg/mL)
26 | O=[N+]([O-])c1cn2c(n1)OC[C@@H](OCc1ccc(-c3ccc(F)cc3)s1)C2 | 0.05 µM (≈ 0.0188 µg/mL)
27 | O=[N+]([O-])c1cn2c(n1)OC[C@@H](OCc1csc(-c3ccc(F)cc3)n1)C2 | 0.35 µM (≈ 0.132 µg/mL)
28 | Cn1c(CO[C@@H]2COc3nc([N+](=O)[O-])cn3C2)cnc1-c1ccc(C#N)cc1 | 2.8 µM (≈ 1.07 µg/mL)
29 | COc1ccc(-n2cc(CO[C@@H]3COc4nc([N+](=O)[O-])cn4C3)nn2)cn1 | 1.6 µM (≈ 0.597 µg/mL)
30 | Cn1c(CO[C@@H]2COc3nc([N+](=O)[O-])cn3C2)cnc1-c1ccc(C(F)(F)F)cc1 | 0.65 µM (≈ 0.275 µg/mL)
31 | N#Cc1ccc(-n2cc(CO[C@@H]3COc4nc([N+](=O)[O-])cn4C3)nn2)cc1 | 0.89 µM (≈ 0.327 µg/mL)
32 | O=[N+]([O-])c1cn2c(n1)OC[C@@H](OCc1ccc(-c3cncc(F)c3)s1)C2 | 0.87 µM (≈ 0.327 µg/mL)
33 | O=[N+]([O-])c1cn2c(n1)OC[C@@H](OCc1nnn(-c3ccccc3)n1)C2 | 1.2 µM (≈ 0.412 µg/mL)
34 | N#Cc1ccc(-c2cc(CO[C@@H]3COc4nc([N+](=O)[O-])cn4C3)on2)cc1 | 1.4 µM (≈ 0.514 µg/mL)
35 | O=[N+]([O-])c1cn2c(n1)OC[C@@H](OCc1ccc(-c3cc(C(F)(F)F)ccn3)s1)C2 | 0.28 µM (≈ 0.119 µg/mL)
36 | COc1ccc(-c2ncc(CO[C@@H]3COc4nc([N+](=O)[O-])cn4C3)n2C)cc1F | 1.4 µM (≈ 0.565 µg/mL)
37 | O=[N+]([O-])c1cn2c(n1)OC[C@@H](OCc1ccc(-c3ccc(OC(F)(F)F)cc3)s1)C2 | 0.85 µM (≈ 0.375 µg/mL)
38 | O=[N+]([O-])c1cn2c(n1)OC[C@@H](OCc1ccc(-c3ccc(F)nc3)s1)C2 | 0.86 µM (≈ 0.324 µg/mL)
39 | N#Cc1ccc(-c2nc(CO[C@@H]3COc4nc([N+](=O)[O-])cn4C3)cs2)cc1 | 0.67 µM (≈ 0.257 µg/mL)
40 | O=[N+]([O-])c1cn2c(n1)OC[C@@H](OCc1cnn(-c3ccccc3)n1)C2 | 0.25 µM (≈ 0.0856 µg/mL)
41 | O=[N+]([O-])c1cn2c(n1)OC[C@@H](OCc1cnn(-c3ccc(F)cc3)n1)C2 | 0.17 µM (≈ 0.0613 µg/mL)
42 | Cn1c(CO[C@@H]2COc3nc([N+](=O)[O-])cn3C2)cnc1-c1ccc(OC(F)(F)F)cc1 | 1.1 µM (≈ 0.483 µg/mL)

Test system: Mycobacterium tuberculosis
Test: Antimycobacterial activity against Mycobacterium tuberculosis H37Rv expressing pFCA-luxAB after 10 days by luminescence-based low-oxygen recovery assay
Format: functional
Details: 240 h

Row | Compound | MIC
43 | O=[N+]([O-])c1cn2c(n1)OC[C@@H](OCc1cn(-c3ccc(F)cc3)nn1)C2 | 6.9 µM (≈ 2.49 µg/mL)
44 | O=[N+]([O-])c1cn2c(n1)OC[C@@H](OCc1ccn(-c3ccc(C(F)(F)F)cc3)n1)C2 | 1 µM (≈ 0.409 µg/mL)
45 | O=[N+]([O-])c1cn2c(n1)OC[C@@H](OCc1ccc(-c3ccc(F)cc3)s1)C2 | 1.9 µM (≈ 0.713 µg/mL)
46 | O=[N+]([O-])c1cn2c(n1)OC[C@@H](OCc1csc(-c3ccc(F)cc3)n1)C2 | 2.8 µM (≈ 1.05 µg/mL)
47 | Cn1c(CO[C@@H]2COc3nc([N+](=O)[O-])cn3C2)cnc1-c1ccc(C#N)cc1 | > 32 µM
48 | COc1ccc(-n2cc(CO[C@@H]3COc4nc([N+](=O)[O-])cn4C3)nn2)cn1 | 12 µM (≈ 4.48 µg/mL)
49 | Cn1c(CO[C@@H]2COc3nc([N+](=O)[O-])cn3C2)cnc1-c1ccc(C(F)(F)F)cc1 | 9.7 µM (≈ 4.11 µg/mL)
50 | COc1ccc(-c2cccc(CO[C@@H]3COc4nc([N+](=O)[O-])cn4C3)c2)cc1F | 2.2 µM (≈ 0.879 µg/mL)
51 | N#Cc1ccc(-n2cc(CO[C@@H]3COc4nc([N+](=O)[O-])cn4C3)nn2)cc1 | 11 µM (≈ 4.04 µg/mL)
52 | O=[N+]([O-])c1cn2c(n1)OC[C@@H](OCc1ccc(-c3cncc(F)c3)s1)C2 | 2.3 µM (≈ 0.866 µg/mL)
53 | O=[N+]([O-])c1cn2c(n1)OC[C@@H](OCc1cccc(-c3ccc(F)cc3)c1)C2 | 3.8 µM (≈ 1.4 µg/mL)
54 | O=[N+]([O-])c1cn2c(n1)OC[C@@H](OCc1nnn(-c3ccccc3)n1)C2 | 5.7 µM (≈ 1.96 µg/mL)
55 | O=[N+]([O-])c1cn2c(n1)OC[C@@H](OCc1cccc(-c3ccc(OC(F)(F)F)cc3)c1)C2 | 2.2 µM (≈ 0.958 µg/mL)
56 | N#Cc1ccc(-c2cc(CO[C@@H]3COc4nc([N+](=O)[O-])cn4C3)on2)cc1 | 6.2 µM (≈ 2.28 µg/mL)
57 | O=[N+]([O-])c1cn2c(n1)OC[C@@H](OCc1ccc(-c3cc(C(F)(F)F)ccn3)s1)C2 | 1.7 µM (≈ 0.725 µg/mL)
58 | COc1ccc(-c2ncc(CO[C@@H]3COc4nc([N+](=O)[O-])cn4C3)n2C)cc1F | > 32 µM
59 | O=[N+]([O-])c1cn2c(n1)OC[C@@H](OCc1ccc(-c3ccc(OC(F)(F)F)cc3)s1)C2 | 2.6 µM (≈ 1.15 µg/mL)
60 | O=[N+]([O-])c1cn2c(n1)OC[C@@H](OCc1ccc(-c3ccc(F)nc3)s1)C2 | 2.3 µM (≈ 0.866 µg/mL)
61 | N#Cc1ccc(-c2nc(CO[C@@H]3COc4nc([N+](=O)[O-])cn4C3)cs2)cc1 | 3.2 µM (≈ 1.23 µg/mL)
62 | O=[N+]([O-])c1cn2c(n1)OC[C@@H](OCc1cccc(-c3ccc(C(F)(F)F)cc3)c1)C2 | 2.9 µM (≈ 1.22 µg/mL)
63 | O=[N+]([O-])c1cn2c(n1)OC[C@@H](OCc1cnn(-c3ccccc3)n1)C2 | 2.2 µM (≈ 0.753 µg/mL)
64 | O=[N+]([O-])c1cn2c(n1)OC[C@@H](OCc1cnn(-c3ccc(F)cc3)n1)C2 | 1.4 µM (≈ 0.504 µg/mL)
65 | Cn1c(CO[C@@H]2COc3nc([N+](=O)[O-])cn3C2)cnc1-c1ccc(OC(F)(F)F)cc1 | 7.4 µM (≈ 3.25 µg/mL)

Test system: not listed separately
Test: Solubility in water at pH 7 at 20 degC
Format: physicochemical
Details: not given

Row | Compound | solubility
66 | O=[N+]([O-])c1cn2c(n1)OC[C@@H](OCc1ccn(-c3ccc(C(F)(F)F)cc3)n1)C2 | 5.4 µg/mL (≈ 13.2 µM)
67 | Cn1c(CO[C@@H]2COc3nc([N+](=O)[O-])cn3C2)cnc1-c1ccc(C(F)(F)F)cc1 | 16 µg/mL (≈ 37.8 µM)
68 | O=[N+]([O-])c1cn2c(n1)OC[C@@H](OCc1cccc(-c3ccc(F)cc3)c1)C2 | 1.8 µg/mL (≈ 4.87 µM)
69 | O=[N+]([O-])c1cn2c(n1)OC[C@@H](OCc1cccc(-c3ccc(C(F)(F)F)cc3)c1)C2 | 2.8 µg/mL (≈ 6.68 µM)

Source: ChEMBL document CHEMBL1156790, “Synthesis and structure-activity relationships of antitubercular 2-nitroimidazooxazines bearing heterocyclic side chains” (J Med Chem, 2010)
